Assay results: paper PMC9530963, “A cathelicidin antimicrobial peptide from Hydrophis cyanocinctus inhibits Zika virus infection by downregulating expression of a viral entry factor” (The Journal of Biological Chemistry, 2022)

Tested on: AXL
Assay: Effect of AC and PKA on Hc-CATH-induced AXL downregulation in A549 cells
Format: cell-based, Homo sapiens
Conditions: 1 h pre-incubation of A549 cells, then Hc-CATH 5 μM, 24 h, Western blot
Protocol: Figure 6 Hc-CATH downregulates AXL via inhibiting COX-2/PGE2/AC/PKA pathway.A, effect of Hc-CATH on COX-2 protein level. A549 cells were incubated with Hc-CATH (1.25, 2.5, or 5 μM) or PBS (solvent of Hc-CATH) at 37 °C for 24 h, COX-2 protein level was examined by Western blot (upper panel) and analyzed by ImageJ (lower panel). B, effect of Hc-CATH on the enzymatic activity of COX-2. Hc-CATH (1.25, 2.5, 5, and 10 μM) or PBS was incubated with COX-2. After incubation at 37 °C for 10 min, the enzymatic activity of COX-2 was detected by enzyme activity inhibitor screening kit. Celecoxib (COX-2 inhibitor, 100 nM) was used as positive control. C, effect of Hc-CATH on PGE2 production. A549 cells were incubated with Hc-CATH (5 μM) at 37 °C. After incubation for 24 h, the level of PGE2 in the cell supernatant was detected by ELISA. D and E, effect of AC (D) and PKA (E) on Hc-CATH-induced AXL downregulation. A549 cells were incubated with forskolin (FSK, agonist of AC, 10 μM) or H89 (inhibitor of PKA, 5 μM) at 37 °C. After incubation for 1 h, the culture media were removed, cells were washed three times with PBS, and fresh culture media were added to cells in the presence of Hc-CATH (5 μM). After incubation for 24 h, AXL protein level was examined by Western blot (upper panel of D and E) and analyzed by ImageJ (lower panel of D and E). ns, not significant, ∗∗p < 0.01, and ∗∗∗p < 0.001. […]

SMILES	effect on Hc-CATH-induced AXL downregulation (FSK 10 μM)	effect on Hc-CATH-mediated AXL downregulation (H89 5 μM)
C=C[C@@]1(C)CC(=O)[C@]2(O)[C@@]3(C)[C@@H](O)CCC(C)(C)[C@@H]3[C@H](O)[C@H](OC(C)=O)[C@@]2(C)O1 [FSK, forskolin]	effectively counteracted the Hc-CATH-induced AXL downregulation	
O=S(=O)(NCCNC/C=C/c1ccc(Br)cc1)c1cccc2cnccc12 [H89]		significantly facilitated Hc-CATH-mediated AXL downregulation
